Reference: publication PMC5766581, “NF-κB inducing kinase is a therapeutic target for systemic lupus erythematosus” (Nature Communications, 2018)

Legend:
[1] = test system: IL-12p40 production from mouse splenic DC; experiment: anti-CD40-induced IL-12p40 production from splenic DCs; assay type: cell-based; conditions: WT mouse splenic DC (not in NIK-deficient); 3 µM or 1 µM, 18 hrs
Procedure: Supplementary Figure 2. NIK inhibition of IL-12p40 production from splenic DCs Splenic DCs (B220- CD11c +) were sorted from Nik WT/WT,CD11c-CRE + and Nik fl/fl, CD11c- […]
µM) for 18 hrs. IL-12p40 production was measured by ELISA. Data represented as mean ± standard deviation of 3 biological replicates. One-way ANOVA with Tukey’s test for multiple comparisons. *p<0.05, **p<0.01, ***p<0.001; ****p<0.0001; ns, not significant.

PhK_gamma2 = target: T1, PhK_gamma2 (Homo sapiens, UniProt P15735); experiment: SelectScreen kinase panel; assay type: biochemical
T1 construct: purchased Invitrogen / ThermoFisher SelectScreen

human B cells = experiment: BAFF B cell survival assay (Cell Titer Glo); assay type: cell-based
Procedure: Human B cells were isolated using Miltenyi Human B cell isolation kit following ficoll separation of buffy coats. […] Mouse B cells were isolated from mouse spleen using Miltenyi mouse B cell isolation kit II. Cells were plated in Co-star 96-well plates at either 50,000 cells/well for the survival assays or at 150,000 cells/well for the proliferation assays. Compounds diluted in DMSO (final DMSO assay concentration = 0.1%) were added to the cells. The cells were incubated with compound for one hour at 37 °C. Stimulus was then added to the plates and survival or proliferation was measured after four days. For the proliferation assays, cells were treated with either Anti-IgM (20 μg/mL) or rhCD40L (10 μg/mL; R&D) or anti-mouse CD40 (100 ng/mL). Proliferation was measured using thymidine incorporation on day four. For the BAFF survival assay, cells were treated with human or mouse rBAFF (R&D Systems) at 10 ng/ml followed by Cell Titer Glo (Promega) to measure survival on day four.

GSK3_alpha = target: T2, GSK3_alpha (Homo sapiens, UniProt P49840); experiment: SelectScreen kinase panel; assay type: biochemical
T2 construct: purchased Invitrogen / ThermoFisher SelectScreen
T2 sequence (P49840 whole entry): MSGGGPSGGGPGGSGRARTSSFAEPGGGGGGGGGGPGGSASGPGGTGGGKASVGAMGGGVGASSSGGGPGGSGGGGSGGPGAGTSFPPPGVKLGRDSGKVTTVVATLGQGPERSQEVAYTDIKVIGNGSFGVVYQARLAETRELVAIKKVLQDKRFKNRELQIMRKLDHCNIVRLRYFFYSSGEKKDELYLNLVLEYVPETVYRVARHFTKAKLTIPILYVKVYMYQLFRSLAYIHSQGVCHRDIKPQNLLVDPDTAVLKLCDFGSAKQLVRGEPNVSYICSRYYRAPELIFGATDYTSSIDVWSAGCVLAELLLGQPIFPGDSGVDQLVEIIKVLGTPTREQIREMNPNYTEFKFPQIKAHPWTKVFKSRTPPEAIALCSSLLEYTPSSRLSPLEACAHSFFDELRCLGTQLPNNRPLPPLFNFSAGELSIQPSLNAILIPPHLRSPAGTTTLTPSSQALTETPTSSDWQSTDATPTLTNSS
Method in brief: (§1)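 Mean percentage inhibition was determined through Invitrogen's SelectScreen broad profiling service, which used peptide-phosphorylation, ADP-quantitation, or ATP-site binding assays (Z′-LYTE, Adapta, LanthaScreen, respectively).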

Yes = target: T3, Yes (Homo sapiens, UniProt P07947); experiment: SelectScreen kinase panel; assay type: biochemical
T3 construct: purchased Invitrogen / ThermoFisher SelectScreen
Method in brief: as §1

PKC-epsilon = target: T4, PKC-epsilon (Homo sapiens, UniProt Q02156); experiment: SelectScreen kinase panel; assay type: biochemical
T4 construct: purchased Invitrogen / ThermoFisher SelectScreen
T4 sequence (Q02156 whole entry): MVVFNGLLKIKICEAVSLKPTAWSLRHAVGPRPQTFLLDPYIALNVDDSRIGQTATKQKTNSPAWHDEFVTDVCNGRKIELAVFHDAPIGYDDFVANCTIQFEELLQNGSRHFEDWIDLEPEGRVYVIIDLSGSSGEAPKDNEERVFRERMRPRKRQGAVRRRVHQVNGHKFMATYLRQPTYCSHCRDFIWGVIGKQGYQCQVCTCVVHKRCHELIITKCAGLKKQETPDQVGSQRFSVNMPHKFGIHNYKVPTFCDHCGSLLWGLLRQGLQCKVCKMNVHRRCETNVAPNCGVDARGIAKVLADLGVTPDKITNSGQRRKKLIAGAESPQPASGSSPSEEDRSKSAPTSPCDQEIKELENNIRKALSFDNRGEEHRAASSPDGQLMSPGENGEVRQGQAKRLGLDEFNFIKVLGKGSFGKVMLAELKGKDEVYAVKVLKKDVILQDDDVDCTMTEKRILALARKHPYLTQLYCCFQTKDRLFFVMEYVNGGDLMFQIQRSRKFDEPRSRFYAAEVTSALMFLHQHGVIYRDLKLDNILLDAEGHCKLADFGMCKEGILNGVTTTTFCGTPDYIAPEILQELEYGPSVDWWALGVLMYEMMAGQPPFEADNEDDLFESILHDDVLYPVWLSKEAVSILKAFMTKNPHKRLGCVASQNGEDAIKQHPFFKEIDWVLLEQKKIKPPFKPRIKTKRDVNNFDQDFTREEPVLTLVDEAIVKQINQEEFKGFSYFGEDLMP
Method in brief: as §1

PAK4 = target: T5, PAK4 (Homo sapiens, UniProt O96013); experiment: SelectScreen kinase panel; assay type: biochemical
T5 construct: purchased Invitrogen / ThermoFisher SelectScreen
T5 sequence (O96013 whole entry): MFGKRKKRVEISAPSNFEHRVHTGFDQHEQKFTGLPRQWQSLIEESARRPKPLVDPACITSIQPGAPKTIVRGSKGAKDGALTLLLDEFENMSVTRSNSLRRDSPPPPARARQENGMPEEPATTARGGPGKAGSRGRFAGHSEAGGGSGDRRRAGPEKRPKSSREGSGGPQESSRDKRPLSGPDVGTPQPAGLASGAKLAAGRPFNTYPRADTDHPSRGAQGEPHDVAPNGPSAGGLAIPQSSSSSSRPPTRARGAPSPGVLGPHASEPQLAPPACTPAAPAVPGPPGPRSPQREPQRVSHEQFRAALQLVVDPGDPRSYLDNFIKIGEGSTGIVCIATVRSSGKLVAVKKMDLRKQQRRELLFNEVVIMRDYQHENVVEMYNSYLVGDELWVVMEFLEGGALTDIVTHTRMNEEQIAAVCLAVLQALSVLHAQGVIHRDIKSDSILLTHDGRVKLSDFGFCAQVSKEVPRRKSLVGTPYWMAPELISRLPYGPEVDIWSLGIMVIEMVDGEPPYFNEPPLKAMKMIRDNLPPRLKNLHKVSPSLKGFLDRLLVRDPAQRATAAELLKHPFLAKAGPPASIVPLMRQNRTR
Method in brief: as §1

PAK6 = target: T6, PAK6 (Homo sapiens, UniProt Q9NQU5); experiment: SelectScreen kinase panel; assay type: biochemical
T6 construct: purchased Invitrogen / ThermoFisher SelectScreen
Method in brief: as §1

PI3K- G = target: T7, PI3K- G (Homo sapiens, UniProt P48736); experiment: SelectScreen kinase panel; assay type: biochemical
T7 construct: purchased Invitrogen / ThermoFisher SelectScreen
Method in brief: as §1

HIPK1 = target: T8, HIPK1 (Homo sapiens, UniProt Q86Z02); experiment: SelectScreen kinase panel; assay type: biochemical
T8 construct: purchased Invitrogen / ThermoFisher SelectScreen
Method in brief: as §1

MST2 = target: T9, MST2 (Homo sapiens, UniProt Q13188); experiment: SelectScreen kinase panel; assay type: biochemical
T9 construct: purchased Invitrogen / ThermoFisher SelectScreen
T9 sequence (Q13188 whole entry): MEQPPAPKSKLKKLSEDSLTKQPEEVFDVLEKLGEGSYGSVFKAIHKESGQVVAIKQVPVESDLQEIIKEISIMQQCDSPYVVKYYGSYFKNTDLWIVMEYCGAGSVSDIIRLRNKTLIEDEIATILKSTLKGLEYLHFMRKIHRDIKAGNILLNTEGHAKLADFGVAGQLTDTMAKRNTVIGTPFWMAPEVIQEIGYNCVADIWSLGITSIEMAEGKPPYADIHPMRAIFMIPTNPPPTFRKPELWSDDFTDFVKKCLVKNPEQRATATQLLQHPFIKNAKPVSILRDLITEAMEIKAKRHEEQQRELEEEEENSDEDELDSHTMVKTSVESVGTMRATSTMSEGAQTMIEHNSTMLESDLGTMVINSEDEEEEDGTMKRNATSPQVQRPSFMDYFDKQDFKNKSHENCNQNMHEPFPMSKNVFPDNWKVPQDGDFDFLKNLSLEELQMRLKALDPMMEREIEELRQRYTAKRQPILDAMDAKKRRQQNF
Method in brief: as §1

DCAMKL2 = target: T10, DCAMKL2 (Homo sapiens, UniProt Q8N568); experiment: SelectScreen kinase panel; assay type: biochemical
T10 construct: purchased Invitrogen / ThermoFisher SelectScreen
T10 sequence (Q8N568 whole entry): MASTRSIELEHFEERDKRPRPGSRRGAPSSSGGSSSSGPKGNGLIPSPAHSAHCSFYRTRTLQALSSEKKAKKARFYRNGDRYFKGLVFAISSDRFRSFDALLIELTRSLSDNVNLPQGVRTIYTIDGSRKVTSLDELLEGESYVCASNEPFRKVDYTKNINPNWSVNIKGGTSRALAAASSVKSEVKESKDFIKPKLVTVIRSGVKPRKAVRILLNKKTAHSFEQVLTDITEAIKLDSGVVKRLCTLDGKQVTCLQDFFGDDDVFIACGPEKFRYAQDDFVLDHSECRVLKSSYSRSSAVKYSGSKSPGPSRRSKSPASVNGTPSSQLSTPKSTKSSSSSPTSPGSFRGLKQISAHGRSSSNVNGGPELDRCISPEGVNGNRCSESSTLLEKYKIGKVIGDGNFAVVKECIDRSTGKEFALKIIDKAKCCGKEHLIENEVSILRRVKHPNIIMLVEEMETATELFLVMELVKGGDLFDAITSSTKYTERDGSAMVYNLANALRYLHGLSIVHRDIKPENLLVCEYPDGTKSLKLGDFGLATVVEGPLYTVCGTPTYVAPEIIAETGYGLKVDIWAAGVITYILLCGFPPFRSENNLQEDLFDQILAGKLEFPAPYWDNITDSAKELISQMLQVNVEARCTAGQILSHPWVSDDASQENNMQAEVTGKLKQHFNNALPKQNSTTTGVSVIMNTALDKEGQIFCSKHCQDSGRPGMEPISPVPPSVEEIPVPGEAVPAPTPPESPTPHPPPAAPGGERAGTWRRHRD
Method in brief: as §1

CHK2 = target: T11, CHK2 (Homo sapiens, UniProt O96017); experiment: SelectScreen kinase panel; assay type: biochemical
T11 construct: purchased Invitrogen / ThermoFisher SelectScreen
T11 sequence (O96017 whole entry): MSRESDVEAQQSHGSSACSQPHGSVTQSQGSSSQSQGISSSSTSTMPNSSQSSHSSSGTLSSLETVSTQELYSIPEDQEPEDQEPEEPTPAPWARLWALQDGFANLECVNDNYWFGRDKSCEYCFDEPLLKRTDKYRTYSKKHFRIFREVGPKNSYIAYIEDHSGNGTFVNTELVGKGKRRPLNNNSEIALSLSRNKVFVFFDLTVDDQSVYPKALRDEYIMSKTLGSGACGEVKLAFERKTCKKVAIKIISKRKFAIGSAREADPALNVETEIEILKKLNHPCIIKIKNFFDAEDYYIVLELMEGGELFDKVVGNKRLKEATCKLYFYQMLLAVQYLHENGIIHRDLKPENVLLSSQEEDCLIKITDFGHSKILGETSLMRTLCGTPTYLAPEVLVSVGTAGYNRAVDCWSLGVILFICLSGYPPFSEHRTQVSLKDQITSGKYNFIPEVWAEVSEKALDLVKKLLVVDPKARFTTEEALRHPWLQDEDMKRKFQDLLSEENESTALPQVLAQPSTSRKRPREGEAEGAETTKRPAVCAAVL
Method in brief: as §1

BrSK1 = target: T12, BrSK1 (Homo sapiens, UniProt Q8TDC3); experiment: SelectScreen kinase panel; assay type: biochemical
T12 construct: purchased Invitrogen / ThermoFisher SelectScreen
T12 sequence (Q8TDC3 whole entry): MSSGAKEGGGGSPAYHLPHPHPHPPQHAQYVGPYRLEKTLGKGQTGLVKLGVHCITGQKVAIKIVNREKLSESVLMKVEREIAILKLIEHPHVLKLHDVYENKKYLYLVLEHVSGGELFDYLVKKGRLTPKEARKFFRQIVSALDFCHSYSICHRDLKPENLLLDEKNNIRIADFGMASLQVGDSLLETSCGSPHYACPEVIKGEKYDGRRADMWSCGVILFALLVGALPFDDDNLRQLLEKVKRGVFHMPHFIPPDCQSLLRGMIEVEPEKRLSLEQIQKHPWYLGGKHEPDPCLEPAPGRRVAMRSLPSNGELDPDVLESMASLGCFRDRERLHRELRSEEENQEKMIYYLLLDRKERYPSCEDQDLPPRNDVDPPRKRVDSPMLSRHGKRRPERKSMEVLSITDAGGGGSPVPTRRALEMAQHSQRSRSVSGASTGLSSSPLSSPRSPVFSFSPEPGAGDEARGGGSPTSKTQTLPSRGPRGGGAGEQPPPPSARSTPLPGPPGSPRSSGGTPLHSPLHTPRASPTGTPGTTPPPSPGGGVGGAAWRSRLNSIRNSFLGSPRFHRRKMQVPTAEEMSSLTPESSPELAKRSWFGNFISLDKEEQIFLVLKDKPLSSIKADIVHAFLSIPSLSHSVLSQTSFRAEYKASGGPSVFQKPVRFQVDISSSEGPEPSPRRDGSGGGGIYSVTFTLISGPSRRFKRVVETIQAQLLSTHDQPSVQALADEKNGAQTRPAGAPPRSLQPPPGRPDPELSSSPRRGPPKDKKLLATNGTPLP
Method in brief: as §1

Cot = target: T13, Cot (Homo sapiens, UniProt P41279); experiment: SelectScreen kinase panel; assay type: biochemical
T13 construct: purchased Invitrogen / ThermoFisher SelectScreen
Method in brief: as §1

ErbB4 = target: T14, ErbB4 (Homo sapiens, UniProt Q15303); experiment: SelectScreen kinase panel; assay type: biochemical
T14 construct: purchased Invitrogen / ThermoFisher SelectScreen
Method in brief: as §1

FGFR3 = target: T15, FGFR3 (Homo sapiens, UniProt P22607); experiment: SelectScreen kinase panel; assay type: biochemical
T15 construct: purchased Invitrogen / ThermoFisher SelectScreen
Method in brief: as §1

Flt1 = target: T16, Flt1 (Homo sapiens, UniProt P17948); experiment: SelectScreen kinase panel; assay type: biochemical
T16 construct: purchased Invitrogen / ThermoFisher SelectScreen
Method in brief: as §1

Tie2 = target: T17, Tie2 (Homo sapiens, UniProt Q02763); experiment: SelectScreen kinase panel; assay type: biochemical
T17 construct: purchased Invitrogen / ThermoFisher SelectScreen
Method in brief: as §1

AKT1 = target: T18, AKT1 (Homo sapiens, UniProt P31749); experiment: SelectScreen kinase panel; assay type: biochemical
T18 construct: purchased Invitrogen / ThermoFisher SelectScreen
T18 sequence (P31749 whole entry): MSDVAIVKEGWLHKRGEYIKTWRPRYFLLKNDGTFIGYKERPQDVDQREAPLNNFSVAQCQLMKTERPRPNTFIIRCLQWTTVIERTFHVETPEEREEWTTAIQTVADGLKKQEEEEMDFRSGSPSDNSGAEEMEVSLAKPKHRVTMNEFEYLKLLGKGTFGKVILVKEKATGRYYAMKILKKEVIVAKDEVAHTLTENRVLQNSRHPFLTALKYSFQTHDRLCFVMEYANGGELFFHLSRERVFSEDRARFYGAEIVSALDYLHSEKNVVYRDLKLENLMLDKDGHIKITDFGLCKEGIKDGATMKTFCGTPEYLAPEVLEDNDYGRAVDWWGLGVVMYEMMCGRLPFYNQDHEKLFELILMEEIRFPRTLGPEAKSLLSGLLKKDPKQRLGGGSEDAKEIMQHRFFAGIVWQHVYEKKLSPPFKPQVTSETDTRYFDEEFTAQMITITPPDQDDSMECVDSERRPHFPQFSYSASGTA
Method in brief: as §1

PIM1 = target: T19, PIM1 (Homo sapiens, UniProt P11309); experiment: SelectScreen kinase panel; assay type: biochemical
T19 construct: purchased Invitrogen / ThermoFisher SelectScreen
Method in brief: as §1

In the case of `COc1cc(C(N)=O)nc(-c2cccc(C#C[C@]3(O)CCN(C)C3=O)c2)c1` [NIK SMI1], the “anti-CD40-induced IL-12p40 production” value [1] is reported as “reduced”, the inhibition at 1 µM (PhK_gamma2) is reported as -3% and the IC50 (human B cells; Homo sapiens, B-cell, BAFF induced, mean ± SD) is reported as 0.189 µM. For the same compound, the “BAFF-driven survival of B cells in vitro” value (human B cells; human B cells) was “completely inhibited”, the inhibition at 1 µM (GSK3_alpha) was 15% and the inhibition at 1 µM (Yes) was 0.5%. For the same compound, the inhibition at 1 µM (PKC-epsilon) was 2%, the inhibition at 1 µM (PAK4) was 64% and the inhibition at 1 µM (PAK6) was 31.5%. It also gave an inhibition at 1 µM (PI3K- G) of -2.9%, an inhibition at 1 µM (HIPK1) of 4.5% and an inhibition at 1 µM (MST2) of 28%. The inhibition at 1 µM (DCAMKL2) was 6.5%, the inhibition at 1 µM (CHK2) was 4.5% and the inhibition at 1 µM (BrSK1) was 13.5%. The inhibition at 1 µM (Cot) was 34.5%, the inhibition at 1 µM (ErbB4) was 7% and the inhibition at 1 µM (FGFR3) was -3.5%. For the same compound, the inhibition at 1 µM (Flt1) was 7%, the inhibition at 1 µM (Tie2) was 6% and the inhibition at 1 µM (AKT1) was 28.5%. The inhibition at 1 µM (PIM1) was -0.5%.
